Measured values reported in US12630528B2, “Amino aryl derivative useful as diacylglycerol acyltransferase 2 inhibitor and use thereof” (LG CHEM, LTD., priority 2019, dated 2026).

The compounds below were run against T1, human DGAT2 (Homo sapiens, UniProt Q96PD7) (assay: DGAT2 enzyme activity inhibition, Phospholipid FlashPlate SPA). Settings: recombinant human DGAT2 membrane protein from Sf-21 cells; inhibition of [14C]-TG production; 37° C.
T1 construct: FLAG (DYKDDDDK); made in house; host or cells: Sf-21 insect cells (BacPAK baculovirus system); membrane fraction used
T1 sequence (Q96PD7 1-388): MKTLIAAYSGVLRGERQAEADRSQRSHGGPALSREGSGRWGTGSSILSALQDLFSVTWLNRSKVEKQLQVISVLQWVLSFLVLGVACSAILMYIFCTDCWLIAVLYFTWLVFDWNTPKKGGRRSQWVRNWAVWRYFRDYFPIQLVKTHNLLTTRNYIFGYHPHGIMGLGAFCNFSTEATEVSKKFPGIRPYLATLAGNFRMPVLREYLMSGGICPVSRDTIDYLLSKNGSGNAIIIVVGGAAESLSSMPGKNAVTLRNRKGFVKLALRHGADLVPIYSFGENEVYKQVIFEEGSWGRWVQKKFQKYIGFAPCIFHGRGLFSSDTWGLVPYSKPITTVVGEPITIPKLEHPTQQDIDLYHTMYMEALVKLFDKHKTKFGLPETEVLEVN
Format: biochemical
Outline: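 Sf-21 membranes expressing recombinant human DGAT2 (2 μg) preincubated with compound (3 nM–10 μM, 1% DMSO) and 50 μM 1,2 sn-oleoyl glycerol, 20 min at 37 °C, then 1 μM [14C]oleoyl-CoA for 15 min. [14C]-TG counted by SPA; inhibition as % of untreated.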

| Compound | IC50 [nM] |
| --- | --- |
| CCOc1ccccc1O[C@@H]1CCCN(c2cncc(Nc3cccc(CC(C)(C)C(=O)O)n3)n2)C1 [Example 51, (R)-3-(6-((6-(3-(2-ethoxyphenoxy)piperidin-1-yl)pyrazin-2-yl)amino)pyridin-2-yl)-2,2-dimethylpropanoic Acid] | 1900 |
| CCOc1ccccc1O[C@@H]1CCCN(c2cncc(Nc3nc4ccccc4s3)n2)C1 [Example 5, (R)—N-(6-(3-(2-ethoxyphenoxy)piperidin-1-yl)pyrazin-2-yl)benzo[d]thiazol-2-amine] | ≥ 13000 |
| CCOc1ccccc1O[C@@H]1CCCN(c2cncc(Nc3cncc(-c4cccc(CC(C)(C)C(=O)O)c4)n3)n2)C1 [Example 112, (R)-3-(3-(6-((6-(3-(2-ethoxyphenoxy)piperidin-1-yl)pyrazin-2-yl)amino)pyrazin-2-yl)phenyl)-2,2-dimethylpropanoic Acid] | 200 |
| CCOc1ccccc1O[C@@H]1CCCN(c2cncc(Nc3nccc(N4CCC[C@H]4C(=O)O)n3)n2)C1 [Example 117, (2-((6-((R)-3-(2-ethoxyphenoxy)piperidin-1-yl)pyrazin-2-yl)amino)pyrimidin-4-yl)-L-proline] | > 10000 |
| CCOc1ccccc1O[C@@H]1CCCN(c2cncc(Nc3nc(C)c(C)s3)n2)C1 [Example 2, (R)—N-(6-(3-(2-ethoxyphenoxy)piperidin-1-yl)pyrazin-2-yl)-4,5-dimethylthiazol-2-amine] | 6500 |
| CCOc1ccccc1O[C@@H]1CCCN(c2cncc(Nc3nccc(-c4ccc(NC(C)(C)C(=O)O)cc4)n3)n2)C1 [Example 161, (R)-2-((4-(2-((6-(3-(2-ethoxyphenoxy)piperidin-1-yl)pyrazin-2-yl)amino)pyrimidin-4-yl)phenyl)amino)-2-methylpropanoic Acid] | 190 |
| (R)-2-(4-((6-(3-(2-ethoxyphenoxy)pyridin-1-yl)pyrazin-2-yl)amino)phenyl)-2-methylpropanoic Acid [Example 28] | > 10000 |
| CCOc1cccnc1O[C@@H]1CCCN(c2cncc(Nc3cccc(-c4ccc(C(C)(C)C(=O)O)cc4)n3)n2)C1 [Example 62, (R)-2-(4-(6-((6-(3-((3-ethoxypyridin-2-yl)oxy)piperidin-1-yl)pyrazin-2-yl)amino)pyridin-2-yl)phenyl)-2-methylpropanoic Acid] | 170 |
| CCOc1cccnc1O[C@@H]1CCCN(c2cncc(Nc3nccc(-c4cccc(C(C)(C)C(=O)O)c4)n3)n2)C1 [Example 142, (R)-2-(3-(2-((6-(3-((3-ethoxypyridin-2-yl)oxy)piperidin-1-yl)pyrazin-2-yl)amino)pyrimidin-4-yl)phenyl)-2-methylpropanoic Acid] | 380 |
| CCOc1ccccc1O[C@@H]1CCCN(c2cncc(Nc3nccc(N4CCC[C@H](OCC(=O)O)C4)n3)n2)C1 [Example 131, 2-(((S)-1-(2-((6-((R)-3-(2-ethoxyphenoxy)piperidin-1-yl)pyrazin-2-yl)amino)pyrimidin-4-yl)piperidin-3-yl)oxy)acetic Acid] | > 10000 |
| CCOc1ccccc1O[C@@H]1CCCN(c2cncc(Nc3nccc(N4CCC(CC(=O)O)CC4)n3)n2)C1 [Example 125, (R)-2-(1-(2-((6-(3-(2-ethoxyphenoxy)piperidin-1-yl)pyrazin-2-yl)amino)pyrimidin-4-yl)piperidin-4-yl)acetic Acid] | 1800 |

The remaining lines, values ahead:

| IC50 [nM] | Compound |
| --- | --- |
| 890 | CCOc1ccccc1O[C@@H]1CCCN(c2nccc(Nc3cccc(-c4ccc(NCC(=O)O)cc4)n3)n2)C1 [Example 75, (R)-(4-(6-((2-(3-(2-ethoxyphenoxy)piperidin-1-yl)pyrimidin-4-yl)amino)pyridin-2-yl)phenyl)glycine] |
| 430 | CCOc1ccccc1O[C@@H]1CCCN(c2cncc(Nc3nc(-c4cccc(CC(C)(C)C(=O)O)c4)ccc3F)n2)C1 [Example 100, (R)-3-(3-(6-((6-(3-(2-ethoxyphenoxy)piperidin-1-yl)pyrazin-2-yl)amino)-5-fluoropyridin-2-yl)phenyl)-2,2-dimethylpropanoic Acid] |
| 150 | CCOc1ccccc1O[C@@H]1CCCN(c2cncc(Nc3nccc(-c4cccc(CC(=O)O)c4)n3)n2)C1 [Example 140, (R)-2-(3-(2-((6-(3-(2-ethoxyphenoxy)piperidin-1-yl)pyrazin-2-yl)amino)pyrimidin-4-yl)phenyl)acetic Acid] |
| > 10000 | CCOc1ccccc1O[C@@H]1CCCN(c2cncc(Nc3ccc(CCC(=O)O)cn3)n2)C1 [Example 38, (R)-3-(6-((6-(3-(2-ethoxyphenoxy)piperidin-1-yl)pyrazin-2-yl)amino)pyridin-3-yl)propanoic Acid] |
| 140 | CCOc1ccccc1O[C@@H]1CCCN(c2cncc(Nc3cccc(-c4ccc(CC(C)(C)C(=O)O)cc4)n3)n2)C1 [Example 72, (R)-3-(4-(6-((6-(3-(2-ethoxyphenoxy)piperidin-1-yl)pyrazin-2-yl)amino)pyridin-2-yl)phenyl)-2,2-dimethylpropanoic Acid] |
| 480 | CCOc1ccccc1O[C@@H]1CCCN(c2cncc(Nc3ccnc(-c4cccc(OC(C)(C)C(=O)O)c4)n3)n2)C1 [Example 174, (R)-2-(3-(4-((6-(3-(2-ethoxyphenoxy)piperidin-1-yl)pyrazin-2-yl)amino)pyrimidin-2-yl)phenoxy)-2-methylpropanoic Acid] |
| 230 | CCOc1ccccc1O[C@@H]1CCCN(c2cncc(Nc3nccc(Oc4ccc(CC(=O)O)cc4)n3)n2)C1 [Example 162, (R)-2-(4-((2-((6-(3-(2-ethoxyphenoxy)piperidin-1-yl)pyrazin-2-yl)amino)pyrimidin-4-yl)oxy)phenyl)acetic Acid] |
| 1100 | CCOc1cccnc1O[C@@H]1CCCN(c2cncc(Nc3ccnc(-c4cccc(OC(C)(C)C(=O)O)c4)n3)n2)C1 [Example 175, (R)-2-(3-(4-((6-(3-((3-ethoxypyridin-2-yl)oxy)piperidin-1-yl)pyrazin-2-yl)amino)pyrimidin-2-yl)phenoxy)-2-methylpropanoic Acid] |
